This is an account of results in ChEMBL document CHEMBL1201862, “PubChem BioAssay data set” (2004).

Some test systems named below: UACC-257; HL-60; M14; OVCAR-4; OVCAR-3; UO-31; OVCAR-5; SF-268; SK-MEL-28; SK-MEL-5; MDA-MB-435; RXF 393; Malme-3M; SR; HOP-92; IGROV-1; U-251; OVCAR-8; SNB-75.
Test in all cases: NCI-60 cell line screen, 48 h

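Briefly, cells in 96-well plates were exposed to five compound concentrations for 48 h, and endpoints were estimated by linear interpolation. At the GI50, growth is halved.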 The source made the active and inactive calls. No stated cut-off is given here; in the data, active = GI50 up to about 1.1 µM and inactive = higher.

Regarding `CSc1ncnc2c1cnn2CCCCO`, the GI50 with UACC-257, with HL-60, in the test on M14, in the test with OVCAR-4, in the test with OVCAR-3 and in the test on UO-31 was > 100 µM (inactive) each time. Further, the GI50 with OVCAR-5, in the test on SF-268, in the test with SK-MEL-28, with SK-MEL-5, in the test on MDA-MB-435 and with RXF 393 was > 100 µM (inactive) in each case. For the same compound, the GI50 with Malme-3M, with SR, in the test on HOP-92, with IGROV-1 and in the test on U-251 was > 100 µM (inactive) throughout.
Turning to `COc1cc2c(c(OC)c1)C(C)=NC(C)C2` (stereo not drawn), the GI50 in the test on UACC-257, in the test on HL-60, in the test with M14, in the test on UO-31, in the test on SF-268 and in the test with SK-MEL-28 was > 100 µM (inactive) each time. Also, the GI50 in the test on SK-MEL-5, with MDA-MB-435, in the test with Malme-3M, with SR, in the test on OVCAR-8 and in the test with IGROV-1 was > 100 µM (inactive) in each case.
Regarding `Clc1ccc(C(c2ccc(Cl)cc2)c2ccccn2)cc1`, the GI50 in the test with SNB-75 is 44.9 µM (inactive); in the test with UACC-257, 18.8 µM (inactive); in the test on HL-60, 20.6 µM (inactive); with M14 it was 21.1 µM (inactive); with OVCAR-4, 27.4 µM (inactive); with OVCAR-3, > 10 µM (inactive). The GI50 was 16.5 µM (inactive) in the test with UO-31; 14.9 µM (inactive) in the test with OVCAR-5; 23.5 µM (inactive) in the test on SF-268; > 10 µM (inactive) in the test with SK-MEL-28; 17.1 µM (inactive) in the test on SK-MEL-5; 14.5 µM (inactive) with RXF 393. For the same compound, the GI50 is 19.1 µM (inactive) with Malme-3M; 20.8 µM (inactive) in the test on SR; 16.7 µM (inactive) in the test with OVCAR-8; 15.8 µM (inactive) with HOP-92; 37.8 µM (inactive) with IGROV-1; 17 µM (inactive) with U-251.
With `CCCN/C(N)=N/C#N`, the GI50 in the test on SNB-75 is > 100 µM (inactive); in the test on UACC-257 it was > 100 µM (inactive); in the test on HL-60, > 100 µM (inactive); in the test with M14 it was > 100 µM (inactive); in the test on OVCAR-4, 37.1 µM (inactive); in the test with OVCAR-3 it was > 100 µM (inactive). Further, the GI50 was > 100 µM (inactive) with UO-31; > 100 µM (inactive) with OVCAR-5; 44.2 µM (inactive) in the test on SF-268; > 100 µM (inactive) in the test with SK-MEL-28; > 100 µM (inactive) with SK-MEL-5; > 100 µM (inactive) with RXF 393. The GI50 with Malme-3M was > 100 µM (inactive); in the test with SR it was 25.1 µM (inactive); with OVCAR-8 it was > 100 µM (inactive); in the test on HOP-92, > 100 µM (inactive); in the test on IGROV-1, > 100 µM (inactive); in the test with U-251 it was 46.7 µM (inactive).
In the case of `COc1cccc(C=O)c1C(=O)c1cc(O)ccc1O`, the GI50 in the test on SNB-75 is > 95.3 µM (inactive); with UACC-257, 20.1 µM (inactive); in the test on HL-60 it was 9.62 µM (inactive); with M14, 17.9 µM (inactive); in the test on OVCAR-4, 18.3 µM (inactive); in the test with OVCAR-3, 20.2 µM (inactive). Besides, the GI50 in the test on UO-31 is 18.5 µM (inactive); in the test on OVCAR-5 it was > 100 µM (inactive); with SF-268, > 40 µM (inactive); in the test on SK-MEL-28, 34.1 µM (inactive); in the test on SK-MEL-5 it was 91.8 µM (inactive); in the test with RXF 393, 17.9 µM (inactive). The GI50 is 20.4 µM (inactive) in the test with Malme-3M; 0.457 µM (active) in the test on SR; 20.3 µM (inactive) with OVCAR-8; 17.7 µM (inactive) with HOP-92; > 44.2 µM (inactive) in the test on IGROV-1; > 100 µM (inactive) with U-251.
